Test results taken from the supplement of paper PMC9663587.

What follows are cell lines tested with CCOc1cc2ncc(C#N)c(Nc3ccc(OCc4ccccn4)c(Cl)c3)c2cc1NC(=O)/C=C/CN(C)C [Neratinib/HKI272] (assay: increase in dead-cell fraction, 72 h; higher = more death). Settings: 3.162 µM.
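Further: breast cancer cell lines in 384-well plates, stained with Hoechst plus LIVE/DEAD far red dye and imaged, cells above an LDR intensity threshold counted dead, Hoechst-negative corpses included.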

MDAMB436 was tested, and the “increase in dead-cell fraction” value was 0.0987.

The cell lines below were run with CN1CC[C@H](c2c(O)cc(O)c3c(=O)cc(-c4ccccc4Cl)oc23)[C@H](O)C1 [Flavopiridol] in the same assay as above. Settings: 0.0001 µM.

Compared with MDAMB231, MDAMB330 is higher in “increase in dead-cell fraction” value: -0.0026 for the first, -0.0007 for the second.

Going from MDAMB361 to MDAMB415, the “increase in dead-cell fraction” value rises from 0.0029 to 0.0065.

MDAMB436 was tested, and the “increase in dead-cell fraction” value was 0.003.

Same assay, conditions: 0.0003162 µM

First: MDAMB231
Second: MDAMB330
The “increase in dead-cell fraction” value of the first is lower: -0.0012 for the first, 0.0052 for the second.

Going from MDAMB361 to MDAMB415, the “increase in dead-cell fraction” value rises from -0.0069 to 0.0005.

In the case of MDAMB436, the “increase in dead-cell fraction” value is reported as -0.0059.

Same assay, conditions: 0.001 µM

First: MDAMB231
Second: MDAMB330
The “increase in dead-cell fraction” value of the first is higher: 0.002 for the first, -0.0013 for the second.

Compared with MDAMB361, MDAMB415 is higher in “increase in dead-cell fraction” value: -0.0039 for the first, 0.0075 for the second.

In the case of MDAMB436, the “increase in dead-cell fraction” value is reported as -0.0173.

Same assay, conditions: 0.003162 µM

Compared with MDAMB231, MDAMB330 is lower in “increase in dead-cell fraction” value: 0.0006 for the first, -0.0006 for the second.

First: MDAMB361
Second: MDAMB415
The “increase in dead-cell fraction” value of the first is higher: 0.0101 for the first, 0.0004 for the second.

In the case of MDAMB436, the “increase in dead-cell fraction” value is reported as 0.0048.

Same assay, conditions: 0.01 µM

Going from MDAMB231 to MDAMB330, the “increase in dead-cell fraction” value falls from -0.0004 to -0.0015.

First: MDAMB361
Second: MDAMB415
The “increase in dead-cell fraction” value of the first is higher: 0.0075 for the first, -0.0008 for the second.

For MDAMB436, the “increase in dead-cell fraction” value was -0.0068.

Same assay, conditions: 0.03162 µM

Going from MDAMB231 to MDAMB330, the “increase in dead-cell fraction” value rises from -0.0008 to 0.0024.

Compared with MDAMB361, MDAMB415 is lower in “increase in dead-cell fraction” value: 0.0039 for the first, 0.002 for the second.

MDAMB436 was tested, and the “increase in dead-cell fraction” value was -0.002.

Same assay, conditions: 0.1 µM

First: MDAMB231
Second: MDAMB330
The “increase in dead-cell fraction” value of the first is higher: 0.0005 for the first, -0.0007 for the second.

Compared with MDAMB361, MDAMB415 is higher in “increase in dead-cell fraction” value: -0.0034 for the first, 0.0078 for the second.

MDAMB436 was tested, and the “increase in dead-cell fraction” value was 0.0119.

Same assay, conditions: 0.3162 µM

First: MDAMB231
Second: MDAMB330
The “increase in dead-cell fraction” value of the first is higher: 0.0405 for the first, 0.0097 for the second.

First: MDAMB361
Second: MDAMB415
The “increase in dead-cell fraction” value of the first is higher: 0.0273 for the first, 0.0072 for the second.

With MDAMB436 the “increase in dead-cell fraction” value was 0.0798.

Same assay, conditions: 1 µM

Compared with MDAMB231, MDAMB330 is lower in “increase in dead-cell fraction” value: 0.485 for the first, 0.25 for the second.

First: MDAMB361
Second: MDAMB415
The “increase in dead-cell fraction” value of the first is lower: 0.0899 for the first, 0.0932 for the second.

MDAMB436 was tested, and the “increase in dead-cell fraction” value was 0.0954.

Each cell line was assayed with C=CC(=O)Nc1ccc(C(=O)Nc2[nH]nc3c2CN(C(=O)N[C@H](CN(C)C)c2ccccc2)C3(C)C)cc1 [YKL-5-124] in the same assay as above. Settings: 0.001 µM.

Going from MDAMB231 to MDAMB330, the “increase in dead-cell fraction” value falls from 0.0171 to 0.0025.

First: MDAMB361
Second: MDAMB415
The “increase in dead-cell fraction” value of the first is higher: 0.0281 for the first, 0.0047 for the second.

For MDAMB436, the “increase in dead-cell fraction” value was -0.0039.

Same assay, conditions: 0.003162 µM

Compared with MDAMB231, MDAMB330 is lower in “increase in dead-cell fraction” value: 0.0093 for the first, 0.0078 for the second.

Compared with MDAMB361, MDAMB415 is lower in “increase in dead-cell fraction” value: 0.0171 for the first, -0.0002 for the second.

For MDAMB436, the “increase in dead-cell fraction” value was 0.0007.

Same assay, conditions: 0.01 µM

Going from MDAMB231 to MDAMB330, the “increase in dead-cell fraction” value falls from 0.016 to 0.0057.

Compared with MDAMB361, MDAMB415 is lower in “increase in dead-cell fraction” value: 0.0264 for the first, 0.0066 for the second.

In the case of MDAMB436, the “increase in dead-cell fraction” value is reported as 0.019.

Same assay, conditions: 0.03162 µM

Going from MDAMB231 to MDAMB330, the “increase in dead-cell fraction” value falls from 0.0176 to 0.0038.

Compared with MDAMB361, MDAMB415 is lower in “increase in dead-cell fraction” value: 0.0267 for the first, 0.0051 for the second.

For MDAMB436, the “increase in dead-cell fraction” value was 0.0153.

Same assay, conditions: 0.1 µM

Going from MDAMB231 to MDAMB330, the “increase in dead-cell fraction” value falls from 0.0238 to 0.0034.

First: MDAMB361
Second: MDAMB415
The “increase in dead-cell fraction” value of the first is higher: 0.0421 for the first, 0.0109 for the second.

With MDAMB436 the “increase in dead-cell fraction” value was 0.0342.

Same assay, conditions: 0.3162 µM

Going from MDAMB231 to MDAMB330, the “increase in dead-cell fraction” value falls from 0.0218 to 0.0041.

Compared with MDAMB361, MDAMB415 is lower in “increase in dead-cell fraction” value: 0.0191 for the first, 0.0176 for the second.

With MDAMB436 the “increase in dead-cell fraction” value was 0.0446.

Same assay, conditions: 1 µM

First: MDAMB231
Second: MDAMB330
The “increase in dead-cell fraction” value of the first is higher: 0.0259 for the first, 0.0016 for the second.

First: MDAMB361
Second: MDAMB415
The “increase in dead-cell fraction” value of the first is higher: 0.0241 for the first, 0.0019 for the second.

For MDAMB436, the “increase in dead-cell fraction” value was 0.0289.

Same assay, conditions: 3.162 µM

Going from MDAMB231 to MDAMB330, the “increase in dead-cell fraction” value falls from 0.0247 to 0.0166.

First: MDAMB361
Second: MDAMB415
The “increase in dead-cell fraction” value of the first is higher: 0.0411 for the first, 0.0153 for the second.

With MDAMB436 the “increase in dead-cell fraction” value was 0.027.

Same assay, conditions: 10 µM

First: MDAMB231
Second: MDAMB330
The “increase in dead-cell fraction” value of the first is higher: 0.155 for the first, 0.131 for the second.

First: MDAMB361
Second: MDAMB415
The “increase in dead-cell fraction” value of the first is higher: 0.371 for the first, 0.0261 for the second.

With MDAMB436 the “increase in dead-cell fraction” value was 0.132.

Each cell line was assayed with CCN1CCN(Cc2ccc(Nc3ncc(F)c(-c4cc(F)c5nc(C)n(C(C)C)c5c4)n3)nc2)CC1 in the same assay as above. Settings: 0.001 µM.

Going from MDAMB231 to MDAMB330, the “increase in dead-cell fraction” value falls from 0.0075 to 0.0005.

Compared with MDAMB361, MDAMB415 is higher in “increase in dead-cell fraction” value: -0.0026 for the first, 0.0027 for the second.

MDAMB436 was tested, and the “increase in dead-cell fraction” value was 0.0024.

Same assay, conditions: 0.003162 µM

Going from MDAMB231 to MDAMB330, the “increase in dead-cell fraction” value falls from 0.0028 to -0.0003.

Going from MDAMB361 to MDAMB415, the “increase in dead-cell fraction” value rises from -0.0006 to 0.004.

With MDAMB436 the “increase in dead-cell fraction” value was -0.005.

Same assay, conditions: 0.01 µM

First: MDAMB231
Second: MDAMB330
The “increase in dead-cell fraction” value of the first is lower: 0.0023 for the first, 0.0039 for the second.

Going from MDAMB361 to MDAMB415, the “increase in dead-cell fraction” value falls from 0.0107 to 0.0062.

With MDAMB436 the “increase in dead-cell fraction” value was 0.0007.

Same assay, conditions: 0.03162 µM

Compared with MDAMB231, MDAMB330 is lower in “increase in dead-cell fraction” value: 0.0037 for the first, 0.003 for the second.

Going from MDAMB361 to MDAMB415, the “increase in dead-cell fraction” value rises from 0.0026 to 0.015.

With MDAMB436 the “increase in dead-cell fraction” value was -0.0009.

Same assay, conditions: 0.1 µM

First: MDAMB231
Second: MDAMB330
The “increase in dead-cell fraction” value of the first is higher: 0.0398 for the first, 0.0014 for the second.

First: MDAMB361
Second: MDAMB415
The “increase in dead-cell fraction” value of the first is lower: 0.0066 for the first, 0.0137 for the second.

For MDAMB436, the “increase in dead-cell fraction” value was 0.0076.

Same assay, conditions: 0.3162 µM

Going from MDAMB231 to MDAMB330, the “increase in dead-cell fraction” value falls from 0.0474 to 0.0018.

Going from MDAMB361 to MDAMB415, the “increase in dead-cell fraction” value rises from 0.0052 to 0.021.

With MDAMB436 the “increase in dead-cell fraction” value was 0.0116.

Same assay, conditions: 1 µM

Compared with MDAMB231, MDAMB330 is lower in “increase in dead-cell fraction” value: 0.12 for the first, 0.0017 for the second.

Compared with MDAMB361, MDAMB415 is higher in “increase in dead-cell fraction” value: 0.0161 for the first, 0.0176 for the second.

MDAMB436 was tested, and the “increase in dead-cell fraction” value was 0.0346.

Same assay, conditions: 3.162 µM

Going from MDAMB231 to MDAMB330, the “increase in dead-cell fraction” value falls from 0.366 to 0.0048.

Compared with MDAMB361, MDAMB415 is lower in “increase in dead-cell fraction” value: 0.0884 for the first, 0.0092 for the second.

With MDAMB436 the “increase in dead-cell fraction” value was 0.0531.

Same assay, conditions: 10 µM

Going from MDAMB231 to MDAMB330, the “increase in dead-cell fraction” value falls from 0.68 to 0.0109.

MDAMB361 was tested, and the “increase in dead-cell fraction” value was 0.172.
